These results are taken from paper PMC2011106, “Structure/activity relationships for the enhancement by electron-affinic drugs of the anti-tumour effect of CCNU” (British Journal of Cancer, 1982).

One data set concerns KHT sarcoma. The data set is described as follows: regrowth-delay assay: enhancement of the anti-tumour effect of CCNU. Particulars: for enhancement of CCNU response relative to MISO: 2.5 mmol/kg 30 min before 10 mg/kg CCNU; for sensitizer dose/response curve, activity: Fig. 4, various sensitizer doses; for growth delay, test compound given alone: without CCNU. The data set is classed as in vivo, C3H mice.

The conditions of data set [1]: for toxicity at 2.5 mmol/kg: 2.5 mmol/kg i.p.; for toxicity: dose not stated, tested at MTD.
The subject of another data set is KHT tumour. More on the design: method as in Rauth et al. (1978). Conditions: same tumour and mouse strain, similar timing; ref Rauth et al. (1978); cited from earlier work.
The test system of a further data set is RIF-1 sarcoma. Set-up: method as in Siemann (1982). Particulars: 5 mmol/kg; ref Siemann (1982); cited from earlier work.
For a further data set, the system named is ascites L1210 leukaemia. More on the design: method as in Klubes et al., 1979. Particulars: mice; ref Klubes et al., 1979; cited from earlier work.
Where [2] appears, read: at close to maximum tolerated dose (MTD, below 2.5 mmol/kg) 30 min before 10 mg/kg CCNU.

Entries after “also recorded” stand apart in the source; their conditions may differ. Counter-ions that a name gives are not always drawn. Like-named read-outs stand apart in the source and are kept apart here.

Consider `Cc1ncc([N+](=O)[O-])n1CCO` [METRO, metronidazole], for which the “enhancement of CCNU response relative to MISO” value with KHT sarcoma is reported as “activities similar or even superior to MISO”. Moreover, the “tumour response” value with KHT sarcoma (10 mmol/kg + 10 mg/kg CCNU, Fig. 4) is “about the same as with 2-5 mmol/kg MISO”. Further, in the data set on KHT sarcoma (10 mg/kg CCNU), the “sensitizer dose/response curve, activity” value is given as “rather less active than MISO”. Besides, the “decrease in body temperature” value (10 mmol/kg) was found to be 10 °C.
On to `COCC(O)Cn1ccnc1[N+](=O)[O-]` (stereo not shown) [MISO, misonidazole], for which, in the data set on KHT sarcoma (mouse, in vivo, 10 mg/kg), the “Activity Index (AI) for enhancement of CCNU effect” value is recorded as 1. The “decrease in body temperature” value (mouse, in vivo) is listed as 1-2.
For `O=C1c2ccccc2C(=O)c2cc(S(=O)(=O)O)ccc21` [anthraquinone sulphonate, anthraquinone-2-sulphonate], in data set [1], the “toxicity at 2.5 mmol/kg” value is recorded as “non-toxic”. In addition, the “enhancement of CCNU response relative to MISO” value in the data set with KHT sarcoma is “reasonable activity”. For the same molecule, the “decrease in body temperature” value (2.5 mmol/kg) is 5-6 °C.
With `O=NN(CCCl)C(=O)NC1CCCCC1` [CCNU, 1-(2-chloroethyl)-3-cyclohexyl-1-nitrosurea], the median growth delay in the data set with KHT sarcoma (CCNU 20 mg/kg alone, 11 independent experiments) is 10 days.
On to `O=[N+]([O-])c1nccn1CC(O)CO` (stereo not shown) [DEMIS, desmethylmisonida- zole], for which the “in vivo radiosensitization” value with KHT tumour was “good radiosensitization”. Besides, the “enhancement of CCNU response relative to MISO” value in the data set on KHT sarcoma is “considerably less active than MISO”.
Consider `O=[N+]([O-])c1nccn1CC(O)CN1CCCCC1` (stereo not shown) [compound 13], for which the “enhancement of CCNU response relative to MISO” value is “Neither was more effective than MISO” with KHT sarcoma and “slightly less than MISO” in the data set with KHT sarcoma (listed as Ro 03-8799).
Regarding `CC1=C(C)C(=O)C(C)=C(C)C1=O` [duroquinone], the “toxicity” value in data set [1] is “quite toxic”. For the same molecule, the “enhancement of CCNU response” value in the data set with KHT sarcoma (setting [2]) is on record as “little or no activity”.
On to `O=C(Cn1ccnc1[N+](=O)[O-])NCCO` [SR-2508], for which the “enhancement of RIF-1 tumour response to CCNU” value with RIF-1 sarcoma is given as “Some enhancement”.
On to `O=[N+]([O-])c1cncn1CCN1CCOCC1` [nimorazole], for which the “enhancement of CCNU response relative to MISO” value in the data set with KHT sarcoma is recorded as “activities similar or even superior to MISO”.
Consider `Cn1cnc([N+](=O)[O-])c1S(=O)(=O)Oc1ccccc1` [NSC 38087], for which, in data set [1], the “toxicity at 2.5 mmol/kg” value is “toxic” and the “toxicity” value was “highly toxic”. Further, the “enhancement of CCNU response” value in the data set on KHT sarcoma (setting [2]) is listed as “little activity at MTD”.
With `Cn1cnc([N+](=O)[O-])c1Sc1ncnc2nc[nH]c12` [azathioprine], the “toxicity at 2.5 mmol/kg” value in data set [1] is recorded as “toxic”. For the same molecule, the “enhancement of CCNU response” value was “superior to 2-5 mmol/kg MISO” in the data set with KHT sarcoma (1.4 mmol/kg, compared with 2.5 mmol/kg MISO, 10 mg/kg CCNU) and “more active than MISO” with KHT sarcoma (setting [2]). In the data set on KHT sarcoma, the “growth delay, test compound given alone” value is “about 1 day”.
For `O=C1CN(/N=C/c2ccc([N+](=O)[O-])o2)C(=O)N1` [nitrofurantoin], the “toxicity at 2.5 mmol/kg” value in data set [1] is reported as “toxic”. For the same molecule, the “enhancement of CCNU response” value with KHT sarcoma (setting [2]) is “virtually inactive”.
For `NC(=O)c1cc(N2CC2)c([N+](=O)[O-])cc1[N+](=O)[O-]` [CB 1954, 2,4-dinitro-5-aziridinylbenzamide], in data set [1], the “toxicity at 2.5 mmol/kg” value was “toxic” and the “toxicity” value is reported as “rather toxic”. Besides, the “enhancement of CCNU response” value in the data set with KHT sarcoma (mouse, in vivo) was “no enhancement of CCNU response at MTD”. Besides, in the data set with KHT sarcoma, the “growth delay, test compound given alone” value was “about 1 day”.
As for `NC(=O)N/N=C/c1ccc([N+](=O)[O-])o1` [nitrofurazone], in data set [1], the “toxicity at 2.5 mmol/kg” value was “toxic”. Moreover, the “enhancement of CCNU response” value in the data set on KHT sarcoma (setting [2]) is “reasonable activity; also recorded: reasonably active, but less than 2-5 mmol/kg MISO”.
For `O=C(Cn1ccnc1[N+](=O)[O-])NCc1ccccc1` [BENZO, benznidazole], the “enhancement of CCNU response relative to MISO” value in the data set on KHT sarcoma is “most active”. Also, in the data set with KHT sarcoma (2.5 mmol/kg + 10 mg/kg CCNU compared with 20 mg/kg CCNU alone), the “dose-modifying factor (DMF)” value is listed as > 2. Further, the “sensitizer dose/response curve, activity” value in the data set with KHT sarcoma (10 mg/kg CCNU) is “good activity at doses down to 0-05-0-1 mmol/kg”. Also, in the data set on KHT sarcoma (low doses 0.1-0.9 mmol/kg, 10 mg/kg CCNU), the “activity relative to MISO at low doses” value is “considerably more active than MISO”.
`CCCC(C(=O)OCCN(CC)CC)(c1ccccc1)c1ccccc1` [SKF 525A, proadifen hydrochloride]: in the data set on KHT sarcoma (0.13 mmol/kg, 10 mg/kg CCNU, 10 mg/kg), the “enhancement of CCNU response” value was “increased the anti-tumour effect of CCNU; also recorded: active”. For the same molecule, in the data set with ascites L1210 leukaemia, the “effect on LD50 of methyl-CCNU” value is reported as “reducing the LD50” and the “response of ascites L1210 leukaemia to methyl-CCNU” value is on record as “increased the response”.
As to `CC1=CC(=O)c2ccccc2C1=O` [menadione], the “toxicity” value in data set [1] was “quite toxic”. Besides, the “enhancement of CCNU response” value with KHT sarcoma (setting [2]) is reported as “little or no activity”.
In the case of `c1c[nH]cn1` [imidazole], the “enhancement of CCNU response” value in the data set on KHT sarcoma (5 mmol/kg (not shown), 10 mg/kg CCNU) is on record as “ineffective”.
